Assay results reported in ChEMBL document CHEMBL4706683 (J Med Chem, 2021).
Activity calls are given as the source filed them. No cut-off for these calls is given here.

Assays:
Plasmodium falciparum [1] = test: Antiplasmodial activity against synchronized ring stage Plasmodium falciparum 3D7 infected in human erythrocytes assessed as reduction in parasite growth incubated for 72 hrs by Giemsa staining based light microscopic method; format: functional, organism-based; details: 3D7, Erythrocyte
Plasmodium falciparum [2] = test: Antiplasmodial activity against synchronized ring stage Plasmodium falciparum Dd2 infected in human erythrocytes assessed as reduction in parasite growth incubated for 72 hrs by Giemsa staining based light microscopic method; format: functional, organism-based; details: Dd2, Erythrocyte
HepG2 = test: Cytotoxicity against human HepG2 cells assessed as reduction in cell viability incubated for 72 hrs by cell titer glo assay; format: cell-based; details: HepG2, 72 h
HEK-293T = test: Cytotoxicity against human HEK293T cells assessed as reduction in cell viability incubated for 72 hrs by cell titer glo assay; format: cell-based
Plasmodium falciparum [3] = test: Antiplasmodial activity against Plasmodium falciparum GB4 infected in human erythrocytes assessed as reduction in parasite growth incubated for 72 hrs by Giemsa staining based light microscopic method; format: functional, organism-based; details: GB4, Erythrocyte
Plasmodium falciparum [4] = test: Antiplasmodial activity against Plasmodium falciparum C2A infected in human erythrocytes assessed as reduction in parasite growth incubated for 72 hrs by Giemsa staining based light microscopic method; format: functional, organism-based; details: Erythrocyte
Plasmodium falciparum [5] = test: Antiplasmodial activity against artemisinin-resistant ring stage Plasmodium falciparum 6320 infected in human erythrocytes assessed as reduction in parasite growth incubated for 72 hrs by Giemsa staining based light microscopic method; format: functional, organism-based; details: Plasmodium falciparum, 6320, Erythrocyte
[6] = Clearance in mouse liver microsomes incubated upto 45 mins in presence of NADPH by LC-MS/MS analysis; format: ADME, Microsome; details: read-out: CLH
[7] = Toxicity in Balb/c mouse infected with blood stage Plasmodium yoelii assessed as animal death at 10 to 30 mg/kg, ip QD for 5 consecutive days and measured on day 6; format: organism-based; details: in vivo, 120 h, dose 10-30 mg/kg, time 5 day
Plasmodium yoelii [8] = test: Antiplasmodial activity against blood stage Plasmodium yoelii infected in Balb/c mouse assessed as reduction in parasitemia at 10 to 30 mg/kg, ip QD for 5 consecutive days and measured on day 20 by microscopic analysis; format: functional, organism-based; details: dose 10-30 mg/kg, time 5.0 day
[9] = Toxicity in Balb/c mouse infected with sporozoites liver stage Plasmodium berghei assessed as animal death at 30 mg/kg, ip administered as single dose and measured after 2 hrs; format: organism-based; details: in vivo
Plasmodium berghei = test: Antiplasmodial activity against liver stage Plasmodium berghei infected in Balb/c mouse assessed as reduction in parasitemia at 30 mg/kg, ip administered as single dose by microscopic analysis; format: functional, organism-based
Plasmodium falciparum [10] = test: Antiplasmodial activity against synchronized ring stage Plasmodium falciparum 3D7 infected in human erythrocytes assessed as new ring stage formation at 10 times IC50 incubated for 12 hrs followed by compound washout and measured at 50 hrs by […] analysis; format: functional, organism-based; details: Erythrocyte
Plasmodium falciparum [11] = test: Antiplasmodial activity against schizont stage Plasmodium falciparum 3D7 infected in human erythrocytes assessed as reduction in parasitemia at 10 times IC50 incubated for 12 hrs followed by compound washout and measured at 96 hrs post infection by […] analysis; format: functional, organism-based; details: Erythrocyte
Plasmodium falciparum [12] = test: Inhibition of Plasmodium falciparum HDAC assessed as hyperacetylation of histone H3 at 20 times IC50 incubated for 4 hrs by Western blot analysis
Plasmodium falciparum [13] = test: Antimalarial activity against synchronized schizont stage transgenic Plasmodium falciparum 3D7 with C-terminal 3xTY1-fused HDAC1 knockdown assessed as parasite growth inhibition pretreated with glucosamine followed by compound treatment and incubated for 4 hrs followed by compound washout for thrice and subsequent culturing for 68 hrs by SYBR Green 1 staining based analysis; format: functional, organism-based
Plasmodium falciparum [14] = test: Antimalarial activity against synchronized schizont stage transgenic Plasmodium falciparum 3D7 with C-terminal 3xTY1-fused HDAC2 knockdown assessed as parasite growth inhibition pretreated with glucosamine followed by compound treatment and incubated for 4 hrs followed by compound washout for thrice and subsequent culturing for 68 hrs by SYBR Green 1 staining based analysis; format: functional, organism-based
Plasmodium falciparum [15] = test: Antimalarial activity against synchronized schizont stage transgenic Plasmodium falciparum 3D7 with C-terminal glmS-fused HDAC2 knockdown assessed as parasite growth inhibition pretreated with glucosamine followed by compound treatment and incubated for 4 hrs followed by compound washout for thrice and subsequent culturing for 68 hrs by SYBR Green 1 staining based analysis; format: functional, organism-based
[16] = Inhibition of recombinant full length C-terminal His/FLAG-tagged Plasmodium falciparum HDAC1 expressed in baculovirus infected sf9 insect cells using fluorogenic […] as substrate preincubated for 1.5 hrs followed by substrate addition and measured after 30 mins by HDAC-GloI/II assay
[17] = Cmax in Balb/c mouse at 5 mg/kg, ip administered as single dose measured upto 24 hrs by LC-MS/MS analysis; format: ADME, organism-based; design: route intraperitoneal, dose 5 mg/kg, time <=24; details: in vivo
[18] = AUC (0 to infinity) in Balb/c mouse at 10 mg/kg, po administered as single dose measured upto 24 hrs by LC-MS/MS analysis; format: ADME, organism-based; design: route oral, dose 10 mg/kg, time <=24; details: in vivo
[19] = Apparent clearance during terminal phase in Balb/c mouse at 5 mg/kg, ip administered as single dose measured upto 24 hrs by LC-MS/MS analysis; format: ADME, organism-based; details: Balb/c, in vivo, read-out: CLz/F (converted)
[20] = Apparent volume of distribution during terminal phase in Balb/c mouse at 5 mg/kg, ip administered as single dose measured upto 24 hrs by LC-MS/MS analysis; format: ADME, organism-based; details: Balb/c, in vivo, read-out: Vz/F
[21] = Apparent volume of distribution during terminal phase in Balb/c mouse at 10 mg/kg, po administered as single dose measured upto 24 hrs by LC-MS/MS analysis; format: ADME, organism-based; details: in vivo
Plasmodium falciparum [22] = test: Antiplasmodial activity against artemisinin-resistant Plasmodium falciparum 6218 assessed as reduction in parasite survival at 700 nM incubated for 6 hrs followed by compound washout thrice and further cultured in compound free medium for 66 hrs by RSA; format: functional, organism-based
Plasmodium falciparum [23] = test: Antiplasmodial activity against artemisinin-resistant Plasmodium falciparum 6320 assessed as reduction in parasite survival at 700 nM incubated for 6 hrs followed by compound washout thrice and further cultured in compound free medium for 66 hrs by RSA; format: functional, organism-based
[24] = Selectivity index, ratio of IC50 for cytotoxicity against human HepG2 cells assessed to IC50 for antiplasmodial activity against synchronized ring stage Plasmodium falciparum 3D7 infected in human erythrocytes; format: toxicity, cell-based; details: read-out: Ratio IC50
[25] = Selectivity index, ratio of IC50 for cytotoxicity against human HEK293T cells assessed to IC50 for antiplasmodial activity against synchronized ring stage Plasmodium falciparum 3D7 infected in human erythrocytes; format: toxicity, cell-based; details: read-out: Ratio IC50
Plasmodium falciparum [26] = test: Antiplasmodial activity against Plasmodium falciparum CP286 infected in human erythrocytes assessed as reduction in parasite growth incubated for 72 hrs by Giemsa staining based light microscopic method; format: functional, organism-based; details: CP286, Erythrocyte
Plasmodium falciparum [27] = test: Antiplasmodial activity against artemisinin-resistant Plasmodium falciparum 6218 infected in human erythrocytes assessed as reduction in parasite growth incubated for 72 hrs by Giemsa staining based light microscopic method; format: functional, organism-based; details: Plasmodium falciparum, 6218, Erythrocyte
[28] = Half life in mouse liver microsomes incubated upto 45 mins in presence of NADPH by LC-MS/MS analysis; format: ADME, Microsome
[29] = Toxicity in Balb/c mouse infected with blood stage Plasmodium yoelii assessed as animal death at 60 mg/kg, ip QD for 5 consecutive days and measured on day 30; format: organism-based; details: in vivo, 120 h, time 5 day
Plasmodium yoelii [30] = test: Antiplasmodial activity against blood stage Plasmodium yoelii infected in Balb/c mouse assessed as reduction in parasitemia at 60 mg/kg, ip QD for 5 consecutive days and measured on day 30 by microscopic analysis; format: functional, organism-based; details: time 5.0 day
[31] = Toxicity in Balb/c mouse infected with blood stage Plasmodium yoelii assessed as recrudescence at 10 to 30 mg/kg, ip QD for 5 consecutive days and measured on day 20; format: organism-based; details: in vivo, 120 h, dose 10-30 mg/kg, time 5 day

Cl.Cn1cc(CNCC2CCN(c3ncc(C(=O)NO)cn3)CC2)c2ccccc21 [QUISINOSTAT HYDROCHLORIDE]
IC50 (Plasmodium falciparum [1]): 5.2 nM | IC50 (Plasmodium falciparum [2]): 7.09 nM | IC50 (HepG2): 42 nM | IC50 (HEK-293T): 48 nM | IC50 (Plasmodium falciparum [3]): 1.7 nM | IC50 (Plasmodium falciparum [4]): 2.53 nM | IC50 (Plasmodium falciparum [5]): 1.62 nM | CLint scaled [6]: 24.6 L/h/kg | Activity [7]: Toxic | Activity (Plasmodium yoelii [8]): inactive | Activity [9]: Toxic | Activity (Plasmodium berghei): inactive | Activity (Plasmodium falciparum [10]): Active | Activity (Plasmodium falciparum [11]): Active | inhibition (Plasmodium falciparum [12]): Active | IC50 (Plasmodium falciparum [13]): 12.4 nM | IC50 (Plasmodium falciparum [14]): 17.2 nM | IC50 (Plasmodium falciparum [15]): 23.7 nM | IC50 [16]: 0.003 nM | Cmax [17]: 0.0887 µg/mL | AUC(0-inf) [18]: 5.98 ng·h/mL | CL/F [19]: 27.7 L/h/kg | Vd/F [20]: 245 L/kg | Vz/F [21]: 4172 L/kg | Activity (Plasmodium falciparum [22]): Active | Activity (Plasmodium falciparum [23]): Active

Cl.Cn1cc(CN2CCC3(CCN(c4ncc(C(=O)NO)cn4)CC3)C2)c2ccccc21
IC50 (Plasmodium falciparum [1]): 2.8 nM | IC50 (Plasmodium falciparum [2]): 2.5 nM | IC50 (HepG2): 72 nM | IC50 (HEK-293T): 60 nM | selectivity ratio [24]: 26 | selectivity ratio [25]: 22 | IC50 (Plasmodium falciparum [3]): 3.7 nM | IC50 (Plasmodium falciparum [4]): 4.87 nM | IC50 (Plasmodium falciparum [26]): 3.9 nM | IC50 (Plasmodium falciparum [27]): 3.5 nM | IC50 (Plasmodium falciparum [5]): 4.1 nM | half-life [28]: 0.214 h | CLint scaled [6]: 25.4 L/h/kg | Activity [29]: Toxic

Cl.Cn1cc(CN2CCC3(CCN(c4ncc(C(=O)NO)cn4)CC3)C2)c2ncccc21
IC50 (Plasmodium falciparum [1]): 3.22 nM | IC50 (Plasmodium falciparum [2]): 4.3 nM | IC50 (HepG2): 855 nM | IC50 (HEK-293T): 755 nM | selectivity ratio [24]: 266 | selectivity ratio [25]: 235 | IC50 (Plasmodium falciparum [3]): 3.7 nM | IC50 (Plasmodium falciparum [4]): 5 nM | IC50 (Plasmodium falciparum [26]): 5.5 nM | IC50 (Plasmodium falciparum [27]): 4.04 nM | IC50 (Plasmodium falciparum [5]): 3.8 nM | half-life [28]: 2.25 h | CLint scaled [6]: 2.43 L/h/kg | Activity [29]: Non-Toxic | Activity (Plasmodium yoelii [30]): inactive

Cl.Cn1cc(CN2CCC3(CCN(c4ncc(C(=O)NO)cn4)CC3)C2)c2cnccc21
IC50 (Plasmodium falciparum [1]): 4 nM | IC50 (Plasmodium falciparum [2]): 4.9 nM | IC50 (HepG2): 982 nM | IC50 (HEK-293T): 1460 nM | selectivity ratio [24]: 248 | selectivity ratio [25]: 370 | IC50 (Plasmodium falciparum [3]): 9.5 nM | IC50 (Plasmodium falciparum [4]): 11.7 nM | IC50 (Plasmodium falciparum [26]): 11.1 nM | IC50 (Plasmodium falciparum [27]): 8.7 nM | IC50 (Plasmodium falciparum [5]): 8.4 nM | half-life [28]: 2.09 h | CLint scaled [6]: 2.61 L/h/kg | Activity [29]: Toxic

Cl.Cn1cc(CN2CCC3(CCN(c4ncc(C(=O)NO)cn4)CC3)C2)c2ccncc21
IC50 (Plasmodium falciparum [1]): 3 nM | IC50 (Plasmodium falciparum [2]): 5.6 nM | IC50 (HepG2): 792 nM | IC50 (HEK-293T): 537 nM | selectivity ratio [24]: 265 | selectivity ratio [25]: 180 | IC50 (Plasmodium falciparum [3]): 4.4 nM | IC50 (Plasmodium falciparum [4]): 4.9 nM | IC50 (Plasmodium falciparum [26]): 5.7 nM | IC50 (Plasmodium falciparum [27]): 3.8 nM | IC50 (Plasmodium falciparum [5]): 3.9 nM | half-life [28]: 3.06 h | CLint scaled [6]: 1.78 L/h/kg | Activity [7]: Non-Toxic | Activity (Plasmodium yoelii [8]): inactive | Activity [31]: Toxic

Cl.Cn1cc(CN2CCC3(CCN(c4ncc(C(=O)NO)cn4)CC3)C2)c2cccnc21
IC50 (Plasmodium falciparum [1]): 3 nM | IC50 (Plasmodium falciparum [2]): 3.4 nM | IC50 (HepG2): 281 nM | IC50 (HEK-293T): 399 nM | selectivity ratio [24]: 93 | selectivity ratio [25]: 132 | IC50 (Plasmodium falciparum [3]): 6.4 nM | IC50 (Plasmodium falciparum [4]): 6.18 nM | IC50 (Plasmodium falciparum [26]): 6.8 nM | IC50 (Plasmodium falciparum [27]): 5 nM | IC50 (Plasmodium falciparum [5]): 5.2 nM | half-life [28]: 2.75 h | CLint scaled [6]: 1.98 L/h/kg | Activity [29]: Non-Toxic | Activity (Plasmodium yoelii [30]): inactive

C[C@H]1[C@@H](O)O[C@@H]2O[C@@]3(C)CC[C@H]4[C@H](C)CC[C@@H]1[C@@]24OO3 [ARTENIMOL]
IC50 (Plasmodium falciparum [1]): 2.7 nM | IC50 (Plasmodium falciparum [2]): 2.68 nM | IC50 (Plasmodium falciparum [3]): 3.2 nM | IC50 (Plasmodium falciparum [4]): 3.7 nM | IC50 (Plasmodium falciparum [26]): 5.6 nM | IC50 (Plasmodium falciparum [27]): 5.2 nM | IC50 (Plasmodium falciparum [5]): 5.9 nM

Cn1nc(CN2CCC3(CCN(c4ncc(C(=O)NO)cn4)CC3)C2)c2ccccc21
IC50 (Plasmodium falciparum [1]): 4.8 nM | IC50 (Plasmodium falciparum [2]): 4.9 nM | IC50 (HepG2): 139 nM | IC50 (HEK-293T): 395 nM | selectivity ratio [24]: 29 | selectivity ratio [25]: 82

O=C(NO)c1cnc(N2CCC3(CCN(Cc4cccnc4)C3)CC2)nc1
IC50 (Plasmodium falciparum [1]): 20.4 nM | IC50 (Plasmodium falciparum [2]): 17.9 nM | IC50 (HepG2): 1830 nM | IC50 (HEK-293T): 2130 nM | selectivity ratio [24]: 90 | selectivity ratio [25]: 104
